Read-outs that look alike come from different tables or passages of the source.
What was measured:
[1] = test system: IFNα-stimulated Kit225 T cells with STAT-dependent luciferase reporter; assay: Kit225 T cell assay, STAT-dependent luciferase reporter, IFNα stimulated; assay type: cell-based, human; conditions: 5-6 hours, read-out: IFNa Kit225 Reporter, LE (IC50)
Procedure: (§1) Kit225 T cells with a stably-integrated STAT-dependent luciferase reporter were plated in RPMI (GIBCO) containing 10% heat-inactivated FBS (GIBCO) and 100 U/mL PenStrep (GIBCO). The cells were then stimulated with either 20 ng/mL human recombinant IL-23 or 200 U/mL human recombinant IFNα (PBL InterferonSource) for 5-6 hours. Luciferase expression was measured using the STEADY-GLO® Luciferase Assay System (PROMEGA®) according to the manufacturer's instructions.

[2] = test system: IL-23-stimulated Kit225 T cells with STAT-dependent luciferase reporter; assay: Kit225 T cell assay, STAT-dependent luciferase reporter, IL-23 stimulated; assay type: cell-based, human; conditions: read-out: IL-23 Kit225 Reporter, LE (IC50)
Procedure: as §1

[3] = 200 U/mL human recombinant IFNα
[4] = 20 ng/mL human recombinant IL-23, 5-6 hours
[5] = Homo sapiens, KIT225, 200 U/mL human recombinant IFNα
[6] = Homo sapiens, KIT225, 20 ng/mL human recombinant IL-23, 5-6 hours

Row | Compound | IC50 [1, 3] | IC50 [2, 4] | IC50 [1, 5] | IC50 [2, 6]
1 | CNc1cc(Nc2cccn(-c3ccc(F)cc3)c2=O)nn2c(C(=O)NCC3(CO)CC3)cnc12 [Example 29] | 200 nM | 340 nM | – | –
2 | CNc1cc(Nc2cccn(-c3ccc(C)nn3)c2=O)nn2c(C(=O)NC(C)CC(C)C)cnc12 (stereo not shown) [Example 235] | 910 nM | 560 nM | – | –
3 | CNc1cc(Nc2cccn(C3CCN(C(=O)C4(C(F)(F)F)CC4)CC3)c2=O)nn2c(C(=O)NC3CC3)cnc12 [Example 246] | – | – | 220 nM | 200 nM
4 | CNc1cc(Nc2ccnn(-c3ccccc3)c2=O)nn2c(C(=O)NC3CC3)cnc12 [Example 179] | 570 nM | 480 nM | – | –
5 | CNc1cc(Nc2cccn(C)c2=O)nn2c(C(=O)NC3CCCCC3C)cnc12 (stereo not shown) [Example 215] | 300 nM | 190 nM | – | –
6 | CNc1cc(Nc2cccn(C)c2=O)nn2c(C(=O)NC(C)C#N)cnc12 (stereo not shown) [Example 129] | 160 nM | 440 nM | – | –
7 | CNc1cc(Nc2cccn(-c3ccccc3)c2=O)nn2c(C(=O)NC3CCC(O)C3(C)C)cnc12 (stereo not shown) [Example 237] | 400 nM | 440 nM | – | –
8 | CNc1cc(Nc2cccn(-c3cnccn3)c2=O)nn2c(C(=O)NC3CCC(O)C3(C)C)cnc12 (stereo not shown) [compound 259] | – | – | 420 nM | 610 nM
9 | CCNC(=O)c1cnc2c(NC)cc(Nc3cccn(-c4ccc(C)nn4)c3=O)nn12 [Example 99] | 230 nM | 110 nM | – | –
10 | CNc1cc(Nc2cccn(-c3ccccc3)c2=O)nn2c(C(=O)NC(CO)CCl)cnc12 (stereo not shown) [Example 4, N-(1-Chloro-3-hydroxypropan-2-yl)-8-(methylamino)-6-(2-oxo-1-phenyl-1,2-dihydropyridin-3-ylamino)imidazo[1,2-b]pyridazine-3-carboxamide] | – | – | 320 nM | 520 nM
11 | CNc1cc(Nc2cccn(-c3ccccc3)c2=O)nn2c(C(=O)NC3(C#N)CCC3)cnc12 [Example 148] | 280 nM | 120 nM | – | –
12 | CNc1cc(Nc2cc(C)cn(-c3ccc(C)nn3)c2=O)nn2c(C(=O)NC3CCC3)cnc12 [Example 92] | 620 nM | 420 nM | – | –
13 | CNc1cc(Nc2cccn(-c3ccc(F)cc3)c2=O)nn2c(C(=O)NCC(C)(CO)CO)cnc12 [Example 14] | 460 nM | 570 nM | – | –
14 | CCNC(=O)c1cnc2c(NC)cc(Nc3cccn(-c4ccccn4)c3=O)nn12 [Example 66] | 180 nM | 90 nM | – | –
15 | CNc1cc(Nc2cccn(-c3cccc(F)n3)c2=O)nn2c(C(=O)NCc3ccccn3)cnc12 [Example 193] | 330 nM | 140 nM | – | –
16 | CNc1cc(Nc2cccn(C3CCN(C(C)=O)CC3)c2=O)nn2c(C(=O)NC3C[C@@H]3F)cnc12 (stereo partly shown) [Example 251] | – | – | 400 nM | 350 nM
17 | CC(C)(CO)CNC(=O)c1cnc2c3c(c(Nc4cccn(-c5ccccn5)c4=O)nn12)OCCN3 [Example 242] | – | – | 360 nM | 170 nM
18 | CNc1cc(Nc2cccn(C)c2=O)nn2c(C(=O)N[C@H]3CCOC3)cnc12 [Example 58] | 970 nM | 90 nM | – | –
19 | CNc1cc(Nc2cccn(-c3ccc(C(C)O)cn3)c2=O)nn2c(C(=O)NC3CC3)cnc12 (stereo not shown) [compound 254] | – | – | 260 nM | 230 nM
20 | CNc1cc(Nc2cccn(-c3ncc(F)cn3)c2=O)nn2c(C(=O)NC3CCCC3)cnc12 [Example 172] | 180 nM | 260 nM | – | –
21 | CNc1cc(Nc2cccn(-c3ccccc3)c2=O)nn2c(C(=O)NC3CCCC3O)cnc12 (stereo not shown) [Example 189] | 190 nM | 230 nM | – | –
22 | CNc1cc(Nc2cc(F)cn(CC(C)(C)O)c2=O)nn2c(C(=O)NC3CC3)cnc12 [Example 121] | 290 nM | 590 nM | – | –
23 | CCC(=O)N1CCC(n2cccc(Nc3cc(NC)c4ncc(C(=O)NC5CC5)n4n3)c2=O)CC1 [Example 249] | – | – | 250 nM | 500 nM
24 | CNc1cc(Nc2cccn(-c3ccc(C(C)O)cc3)c2=O)nn2c(C(=O)NC3CC3)cnc12 (stereo not shown) [Example 135] | 240 nM | 280 nM | – | –
25 | CNc1cc(Nc2cccn(-c3ccc(C)nn3)c2=O)nn2c(C(=O)NCCF)cnc12 [Example 102] | 260 nM | 260 nM | – | –
26 | CNc1cc(Nc2cccn(-c3ccc(F)nc3)c2=O)nn2c(C(=O)NC3CC3)cnc12 [Example 17] | 180 nM | 240 nM | – | –

Further lines, results first:

Row | IC50 [1, 3] | IC50 [2, 4] | IC50 [1, 5] | IC50 [2, 6] | Compound
27 | 50 nM | 80 nM | – | – | CNc1cc(Nc2cccn(C)c2=O)nn2c(C(=O)N[C@@H]3C[C@@H]3F)cnc12 [Example 116]
28 | 120 nM | 150 nM | – | – | CNc1cc(Nc2cccn(-c3ccc(F)cc3)c2=O)nn2c(C(=O)NC3CC3)cnc12 [Example 10]
29 | 140 nM | 290 nM | – | – | CNc1cc(Nc2cccn(-c3ccc(C)nn3)c2=O)nn2c(C(=O)NC(C)COC)cnc12 (stereo not shown) [Example 234]
30 | 120 nM | 190 nM | – | – | CCC(C)NC(=O)c1cnc2c(NC)cc(Nc3cccn(C)c3=O)nn12 (single isomer, unassigned) [Example 73]
31 | 20 nM | 30 nM | – | – | CNc1cc(Nc2cccn(-c3cc(C)on3)c2=O)nn2c(C(=O)NC3CCC3)cnc12 [Example 157]
32 | 120 nM | 210 nM | – | – | CNc1cc(Nc2cncn(-c3ccccn3)c2=O)nn2c(C(=O)NC3CCC3)cnc12 [Example 71]
33 | 130 nM | 290 nM | – | – | CNc1cc(Nc2cccn(C3CCOC3)c2=O)nn2c(C(=O)NC3CCCC3)cnc12 (stereo not shown) [Example 222]
34 | 60 nM | 80 nM | – | – | CNc1cc(Nc2cccn(-c3ccccc3F)c2=O)nn2c(C(=O)NC3(C#N)CC3)cnc12 [Example 156]
35 | 60 nM | 110 nM | – | – | CNc1cc(Nc2cccn(-c3nnc(C)s3)c2=O)nn2c(C(=O)N[C@@H]3C[C@@H]3F)cnc12 [Example 195]
36 | 40 nM | 150 nM | – | – | CNc1cc(Nc2cc(F)cn(C)c2=O)nn2c(C(=O)NCC(C)(C)CO)cnc12 [Example 24]
37 | 100 nM | 70 nM | – | – | CNc1cc(Nc2cccn(-c3ccc(OC)nc3)c2=O)nn2c(C(=O)NC3CC3)cnc12 [Example 204]
38 | 20 nM | 40 nM | – | – | CNc1cc(Nc2cccn(-c3ccccc3)c2=O)nn2c(C(=O)N[C@@H]3C[C@@H]3F)cnc12 [Example 191]
39 | 90 nM | 70 nM | – | – | CNc1cc(Nc2cccn(-c3ccc(C(C)O)cc3)c2=O)nn2c(C(=O)NC3CCC3)cnc12 (stereo not shown) [Example 142]
40 | 30 nM | 100 nM | – | – | CNc1cc(Nc2cccn(C3CCC(N4CCOCC4)CC3)c2=O)nn2c(C(=O)NC3CCC3)cnc12 (stereo not shown) [Example 225]
41 | 90 nM | 240 nM | – | – | CNc1cc(Nc2cccn(C3CCCCC3)c2=O)nn2c(C(=O)NC3CC3)cnc12 [Example 226]
42 | 100 nM | 210 nM | – | – | CNc1cc(Nc2cccn(C3CCC3)c2=O)nn2c(C(=O)NC3CC3)cnc12 [Example 228]
43 | 100 nM | 130 nM | – | – | CNc1cc(Nc2cccn(-c3ccn(C)n3)c2=O)nn2c(C(=O)NC3CC3)cnc12 [Example 158]

Row | IC50 [1, 3] | IC50 [2, 4] | IC50 [1, 5] | IC50 [2, 6] | Compound
44 | 40 nM | 30 nM | – | – | CNc1cc(Nc2cccn(-c3ccn(C)n3)c2=O)nn2c(C(=O)NC3CCC3)cnc12 [Example 159]
45 | 110 nM | 610 nM | – | – | CNc1cc(Nc2cc(F)cn(CCF)c2=O)nn2c(C(=O)NC3CC3)cnc12 [Example 21]
46 | 20 nM | 60 nM | – | – | CNc1cc(Nc2cc(F)cn(-c3ccccn3)c2=O)nn2c(C(=O)NC3CCC3)cnc12 [Example 150]
47 | 100 nM | 90 nM | – | – | CNc1cc(Nc2cccn(C(C)C)c2=O)nn2c(C(=O)NCC(C)(C)CO)cnc12 [Example 217]
48 | 130 nM | 430 nM | – | – | CNc1cc(Nc2cccn(-c3ccn(C4CC4)n3)c2=O)nn2c(C(=O)NC3CC3)cnc12 [Example 165]
49 | 110 nM | 310 nM | – | – | CNc1cc(Nc2cccn(-c3ncc(C(F)(F)F)cn3)c2=O)nn2c(C(=O)NC3CC3)cnc12 [Example 175]
50 | 120 nM | 180 nM | – | – | CNc1cc(Nc2cccn(-c3cccc(C(C)(C)O)n3)c2=O)nn2c(C(=O)NC3CC3)cnc12 [Example 81]
51 | 100 nM | 170 nM | – | – | CNc1cc(Nc2cccn(-c3ccc(F)cc3)c2=O)nn2c(C(=O)NC3(C#N)CC3)cnc12 [Example 12]
52 | 140 nM | 290 nM | – | – | CNc1cc(Nc2cccn(-c3ccc(C(F)(F)F)cc3)c2=O)nn2c(C(=O)NC3(C#N)CC3)cnc12 [Example 137]
53 | 30 nM | 40 nM | – | – | CCCc1ccc(-n2cccc(Nc3cc(NC)c4ncc(C(=O)N[C@@H]5C[C@@H]5F)n4n3)c2=O)nn1 [Example 100]
54 | 80 nM | 140 nM | – | – | CNc1cc(Nc2cccn(-c3cccc(F)n3)c2=O)nn2c(C(=O)NC3CC3)cnc12 [Example 144]
55 | 80 nM | 200 nM | – | – | CNc1cc(Nc2cccn(-c3cccnn3)c2=O)nn2c(C(=O)NC3CCC3)cnc12 [Example 104]
56 | 20 nM | 70 nM | – | – | CNc1cc(Nc2cc(Cl)cn(C)c2=O)nn2c(C(=O)NC3(C#N)CC3)cnc12 [Example 23]
57 | 30 nM | 20 nM | – | – | CNc1cc(Nc2cccn(-c3cccc(C(C)(C)O)n3)c2=O)nn2c(C(=O)NC3CCC3)cnc12 [Example 77]
58 | 140 nM | 210 nM | – | – | CNc1cc(Nc2cccn(-c3ncc(F)cn3)c2=O)nn2c(C(=O)NC3CC3)cnc12 [Example 171]
59 | 30 nM | 50 nM | – | – | CNc1cc(Nc2cccn(-c3cc(C)n(C)n3)c2=O)nn2c(C(=O)N[C@@H]3C[C@@H]3F)cnc12 [Example 160]
